{"source": "ChEMBL document CHEMBL1201862", "about": "“PubChem BioAssay data set” (2004)", "key": {"HT-1080": {"system": "HT-1080", "assay": "HT1080 cell viability loss – fluorescence readout (AID 620)", "assay_type": "functional, cell-based", "conditions": "Homo sapiens"}, "[1]": {"target": "Luciferin 4-monooxygenase (Photinus pyralis, UniProt P08659)", "sequence (P08659 whole entry)": "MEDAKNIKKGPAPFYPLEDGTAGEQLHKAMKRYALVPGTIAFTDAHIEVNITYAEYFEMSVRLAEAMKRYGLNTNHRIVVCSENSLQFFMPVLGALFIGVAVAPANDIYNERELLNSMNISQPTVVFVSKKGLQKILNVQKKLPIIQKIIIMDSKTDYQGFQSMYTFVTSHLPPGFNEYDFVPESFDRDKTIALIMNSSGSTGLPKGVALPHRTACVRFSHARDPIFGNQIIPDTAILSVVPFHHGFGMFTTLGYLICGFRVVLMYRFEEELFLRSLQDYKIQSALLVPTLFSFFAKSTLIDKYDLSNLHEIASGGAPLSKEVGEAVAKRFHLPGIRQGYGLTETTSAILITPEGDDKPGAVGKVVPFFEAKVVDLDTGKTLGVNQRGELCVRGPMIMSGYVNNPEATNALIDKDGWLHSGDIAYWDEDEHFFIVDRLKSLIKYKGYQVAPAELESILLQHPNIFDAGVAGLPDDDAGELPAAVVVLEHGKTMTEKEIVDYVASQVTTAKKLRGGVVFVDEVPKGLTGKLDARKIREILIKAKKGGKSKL", "assay": "Counter Screen for Luciferase-based Assay Positives. [Related pubchem assays: 620, 618, 411 ]"}, "[2]": {"assay": "toxicity toward HepG2 liver cells – cell-based, plate reader, cherry-pick, antagonist series, cytotoxicity control, dose response (AID 743416)", "assay_type": "functional"}, "[3]": {"assay": "microbe, parasite or virus in culture", "assay_type": "functional", "conditions": "Mycobacterium tuberculosis"}, "[4]": {"assay": "blockers of bursicon-stimulated LGR2 cAMP reporter – cell-based, HEK293, CRE-luciferase reporter, cherry pick, set 2, dose response (AID 743343);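 further: transfected cells were stimulated with diluted bursicon conditioned medium after compound addition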", "assay_type": "functional"}, "[5]": {"assay": "blockade of melanocortin 4 receptor signaling – cell-based, plate reader, cherry pick, counter-screen for LGR2 antagonist project, dose response (AID 743444);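 further: transfected HEK 293 cells stimulated with alpha-MSH peptide; potency of inhibitors of the alpha-MSH evoked signal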", "assay_type": "functional"}, "[6]": {"assay": "viability loss in HEK293 cells – cell-based, plate reader, cherry-picked samples, cytotoxicity control, dose response (AID 743446)", "assay_type": "functional"}, "[7]": {"assay": "HEK-293T cell viability reduction – luminescence, B-cell screen hits, cytotoxicity control for BCR NF-kB inhibitor project, dose response (AID 489021);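 further: cells exposed to compound for about 14 hours before viability readout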", "assay_type": "functional, cell-based"}, "[8]": {"target": "Glyceraldehyde-3-phosphate dehydrogenase (Homo sapiens, UniProt P04406)", "sequence (P04406 whole entry)": "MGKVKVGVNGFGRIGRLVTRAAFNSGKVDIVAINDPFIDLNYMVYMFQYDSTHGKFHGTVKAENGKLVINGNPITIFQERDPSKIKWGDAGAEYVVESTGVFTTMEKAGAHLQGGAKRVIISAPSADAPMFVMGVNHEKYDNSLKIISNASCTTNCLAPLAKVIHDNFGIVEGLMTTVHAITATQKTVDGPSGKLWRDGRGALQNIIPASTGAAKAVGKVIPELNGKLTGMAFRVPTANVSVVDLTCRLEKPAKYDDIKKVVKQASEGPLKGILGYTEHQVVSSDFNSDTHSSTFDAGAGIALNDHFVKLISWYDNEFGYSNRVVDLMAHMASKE"}, "[9]": {"target": "T1, Heat shock factor protein 1 (Mus musculus, UniProt P38532)", "T1 sequence (P38532 whole entry)": "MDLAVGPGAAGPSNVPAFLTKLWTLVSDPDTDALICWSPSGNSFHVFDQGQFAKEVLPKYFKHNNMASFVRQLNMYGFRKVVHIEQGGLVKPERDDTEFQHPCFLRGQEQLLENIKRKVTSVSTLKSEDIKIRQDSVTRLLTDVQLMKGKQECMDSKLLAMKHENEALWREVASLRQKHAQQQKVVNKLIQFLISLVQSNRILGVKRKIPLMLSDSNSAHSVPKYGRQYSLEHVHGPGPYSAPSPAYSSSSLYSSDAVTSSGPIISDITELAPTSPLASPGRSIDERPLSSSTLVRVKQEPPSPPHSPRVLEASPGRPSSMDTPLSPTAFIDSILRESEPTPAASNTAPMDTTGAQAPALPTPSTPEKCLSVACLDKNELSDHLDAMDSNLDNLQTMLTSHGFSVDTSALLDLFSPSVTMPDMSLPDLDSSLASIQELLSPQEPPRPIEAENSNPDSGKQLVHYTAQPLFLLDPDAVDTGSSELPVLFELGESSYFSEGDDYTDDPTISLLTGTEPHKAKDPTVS", "assay": "decrease of HSF1-responsive luciferase luminescence – cell-based, NIH3T3, dose retest, confirmation (AID 2382);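 further: NIH3T3 fibroblasts with HSF1-driven luciferase reporter stressed by proteasome inhibitor MG132; luminescence from HSF1-driven luciferase expression after 8 hours of MG132 stress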", "assay_type": "functional"}, "Aspartyl aminopeptidase": {"target": "T2, Aspartyl aminopeptidase (Plasmodium falciparum 3D7, UniProt Q8I2J3)", "T2 sequence (Q8I2J3 whole entry)": "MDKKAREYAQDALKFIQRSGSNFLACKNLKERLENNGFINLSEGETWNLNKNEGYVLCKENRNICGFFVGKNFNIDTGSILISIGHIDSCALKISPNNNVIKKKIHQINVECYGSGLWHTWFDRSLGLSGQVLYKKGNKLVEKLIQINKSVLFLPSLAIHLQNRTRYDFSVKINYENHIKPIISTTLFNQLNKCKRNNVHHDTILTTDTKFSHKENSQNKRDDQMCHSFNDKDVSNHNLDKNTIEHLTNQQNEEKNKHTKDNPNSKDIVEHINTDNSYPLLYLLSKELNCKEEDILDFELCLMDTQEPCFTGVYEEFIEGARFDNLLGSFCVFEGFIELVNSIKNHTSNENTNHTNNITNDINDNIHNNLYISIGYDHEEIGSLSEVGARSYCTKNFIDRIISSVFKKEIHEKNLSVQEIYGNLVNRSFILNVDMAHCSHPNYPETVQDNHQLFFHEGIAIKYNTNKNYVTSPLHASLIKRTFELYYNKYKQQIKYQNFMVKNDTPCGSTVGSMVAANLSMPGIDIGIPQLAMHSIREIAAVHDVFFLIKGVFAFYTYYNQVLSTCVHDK", "assay": "Counterscreen for inhibitors of M1 and M17 aminopeptidases: QFRET-based biochemical high throughput dose response assay for inhibitors of the Plasmodium falciparum M18 Aspartyl Aminopeptidase (PFM18AAP). [Related PubChem assays: 1619 (Screening assay (M17LAP inhibitors).), 1445 (Screening assay (M1AAP inhibitors).)]"}, "Procathepsin L": {"target": "Procathepsin L (Homo sapiens, UniProt P07711)", "sequence (P07711 whole entry)": "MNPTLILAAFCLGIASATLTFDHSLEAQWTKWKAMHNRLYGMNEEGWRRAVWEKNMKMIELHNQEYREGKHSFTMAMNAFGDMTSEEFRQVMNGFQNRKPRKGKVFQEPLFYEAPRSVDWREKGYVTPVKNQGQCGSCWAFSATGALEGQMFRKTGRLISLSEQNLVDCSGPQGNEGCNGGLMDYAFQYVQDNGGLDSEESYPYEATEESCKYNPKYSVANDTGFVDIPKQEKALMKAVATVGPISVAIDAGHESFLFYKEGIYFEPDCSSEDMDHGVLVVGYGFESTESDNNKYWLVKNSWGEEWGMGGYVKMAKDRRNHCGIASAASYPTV", "assay": "CTSL1 protease inhibition – biochemical, QFRET, 1536-well, counter-screen for M1/M17 aminopeptidase inhibitor project, dose response (AID 2214)"}, "Leucine aminopeptidase": {"target": "T3, Leucine aminopeptidase (Plasmodium falciparum 3D7, UniProt Q8IL11)", "T3 sequence (Q8IL11 whole entry)": "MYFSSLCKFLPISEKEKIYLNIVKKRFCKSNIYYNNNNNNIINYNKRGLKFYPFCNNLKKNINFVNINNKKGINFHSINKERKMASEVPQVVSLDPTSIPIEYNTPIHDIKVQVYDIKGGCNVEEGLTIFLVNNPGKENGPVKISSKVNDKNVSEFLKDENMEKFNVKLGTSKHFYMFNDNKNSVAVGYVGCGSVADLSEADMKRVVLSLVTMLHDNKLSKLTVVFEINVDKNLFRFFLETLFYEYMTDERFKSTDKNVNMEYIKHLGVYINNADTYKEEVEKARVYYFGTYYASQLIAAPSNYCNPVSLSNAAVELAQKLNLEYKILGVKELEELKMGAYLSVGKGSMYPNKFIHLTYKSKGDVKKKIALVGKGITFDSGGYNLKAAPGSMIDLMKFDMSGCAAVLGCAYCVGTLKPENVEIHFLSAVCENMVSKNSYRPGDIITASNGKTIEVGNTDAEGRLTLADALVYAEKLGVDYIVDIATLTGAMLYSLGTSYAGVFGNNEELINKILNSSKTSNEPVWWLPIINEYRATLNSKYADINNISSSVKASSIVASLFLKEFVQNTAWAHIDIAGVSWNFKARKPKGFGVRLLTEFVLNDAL", "assay": "P. falciparum M17LAP inhibitors, primary screen, biochemical, fluorogenic H-Leu-NHMec substrate, 1536-well (AID 1619)", "assay_type": "functional"}, "Prothrombin": {"target": "Prothrombin (Homo sapiens, UniProt P00734)", "assay": "Thrombin 1536 HTS Dose Response Confirmation. [Related pubchem assays: 1046 (Thrombin 1536 HTS; hits were confirmed in this assay)]", "assay_type": "functional"}}, "note": "The source made the active and inactive calls.", "data": [{"smiles": "Cc1cc(C)n(-c2nc3ccccc3nc2N2CCC(C)CC2)n1", "values": [{"measurement": "EC50", "setting": "HT-1080", "value": "> 50 µM (not active)"}, {"measurement": "EC50", "setting": "[1]", "value": "1.01 µM (active)"}]}, {"smiles": "CC(C)(C)c1ccc(-c2nc(-c3ccncc3)no2)cc1", "values": [{"measurement": "AC50", "setting": "[2]", "value": "30.1 µM (active)"}, {"measurement": "CC50", "setting": "[3]", "value": "34.2 µM (active)"}, {"measurement": "EC50", "setting": "HT-1080", "value": "> 50 µM (not active)"}, {"measurement": "AC50", "setting": "[4]", "value": "12.9 µM (active)"}, {"measurement": "AC50", "setting": "[5]", "value": "20.8 µM (active)"}, {"measurement": "EC50", "setting": "[1]", "value": "0.57 µM (active)"}, {"measurement": "AC50", "setting": "[6]", "value": "> 52 µM (inactive)"}]}, {"smiles": "O=C(O)CCSc1nc2ccccc2s1", "values": [{"measurement": "IC50", "setting": "[7]", "value": "> 80 µM (inactive)"}, {"measurement": "IC50", "setting": "[8]", "value": "> 100 µM (not active)"}, {"measurement": "EC50", "setting": "[9]", "value": "6.83 µM (active)"}, {"measurement": "EC50", "setting": "HT-1080", "value": "> 50 µM (not active)"}, {"measurement": "EC50", "setting": "[1]", "value": "> 100 µM (not active)"}]}, {"smiles": "N#Cc1c(NC(=O)C2CC(Cl)=CCC2C(=O)O)sc2c1CCCC2", "note": "(stereo not drawn)", "values": [{"measurement": "IC50", "setting": "Aspartyl aminopeptidase", "value": "> 73.5 µM (not active)"}, {"measurement": "IC50", "setting": "Procathepsin L", "value": "> 59.6 µM (not active)"}, {"measurement": "IC50", "setting": "Leucine aminopeptidase", "value": "< 1 µM (active)"}]}, {"smiles": "CCCCN1C(=O)NC(=O)C2(Cc3c(nc4ccccn4c3=O)N3CCc4ccccc4C32)C1=O", "note": "(stereo not drawn)", "values": [{"measurement": "IC50", "setting": "Prothrombin", "value": "5.42 µM (active)"}]}]}
